The record followed here is patent publication US4623662A, “Antiatherosclerotic ureas and thioureas” (American Cyanamid Company, priority 1985, dated 1986).

Experiment [1] addresses T1, fatty acyl CoA: cholesterol acyl transferase (ACAT) (Rattus norvegicus, UniProt O70536).
T1 construct: The supernatant, containing the microsomal fraction, served as the source of the cholesterol-esterifying enzyme; from tissue; host or cells: rat adrenals, supernatant of 1,000 x g centrifugation containing the microsomal fraction
T1 sequence (O70536 1-545): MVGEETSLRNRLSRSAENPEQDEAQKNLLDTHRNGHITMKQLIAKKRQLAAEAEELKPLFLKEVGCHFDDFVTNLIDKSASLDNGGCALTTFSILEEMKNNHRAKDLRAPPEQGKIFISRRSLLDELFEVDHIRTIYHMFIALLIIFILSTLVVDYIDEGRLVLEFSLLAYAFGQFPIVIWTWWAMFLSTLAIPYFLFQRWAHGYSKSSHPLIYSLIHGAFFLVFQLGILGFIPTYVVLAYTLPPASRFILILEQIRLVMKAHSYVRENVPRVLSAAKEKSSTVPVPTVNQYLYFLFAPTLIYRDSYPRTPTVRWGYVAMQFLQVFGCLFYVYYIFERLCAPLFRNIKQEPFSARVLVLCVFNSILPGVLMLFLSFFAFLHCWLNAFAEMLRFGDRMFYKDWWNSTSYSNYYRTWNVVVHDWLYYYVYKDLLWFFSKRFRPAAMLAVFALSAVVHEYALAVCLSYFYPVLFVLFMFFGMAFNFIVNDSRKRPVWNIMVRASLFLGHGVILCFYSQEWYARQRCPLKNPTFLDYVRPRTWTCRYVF
In words: Inhibition of fatty acyl CoA:cholesterol acyl transferase (ACAT), rat adrenal enzyme. Format: biochemical. Here is the method: The compounds of the present invention were assayed for two types of biological activity related to their potential use as antiatherosclerotic agents. Compounds were tested in vitro for the ability to inhibit the enzyme fatty acyl CoA: cholesterol acyl transferase (ACAT) and in vivo for serum hypolipidemic activity as meausred by the ability to inhibit lipid absorption in rats.
The compounds were tested for their ability to inhibit ACAT according to the following procedure: rat adrenals were homogenized in 0.2M monobasic potassium phosphate buffer, pH 7.4, and centrifuged at 1,000 times gravity for 15 minutes at 5° C. The supernatant, containing the microsomal fraction, served as the source of the cholesterol-esterifying enzyme, fatty acyl CoA:cholesterol acyl transferase (ACAT). A mixture comprising 50 parts of adrenal supernatant, 10 parts of bovine serum albumin (50 mg/ml), 3 parts of test compound (final concentration 5.2 μg/ml), and 500 parts of buffer was preincubated at 37° C. for 10 minutes. After treatment with 20 parts of oleoyl CoA (^14 C-0.4 μCi), the mixture was incubated at 37° C. for 10 minutes. A control mixture, omitting the test compound, was prepared and treated in the same manner. The lipids from the incubation mixture was extracted into an organic solvent and separated by thin-layer chromatography. The cholesteryl ester fraction was counted in a scintillation counter. This procedure is a modification of that described by Hashimoto, et al., Life Scie., 12 (Part II), 1-12 (1973).
Compounds which produced statistically significant inhibition of the ACAT enzyme are considered to be active.
In addition to the above described test and the results given in terms of percent inhibition, various compounds of this invention were tested by the same procedure at several concentrations. The results of this test are given in Table II in terms of IC50 (μM), that concentration which produced 50% inhibition of the ACAT enzyme.

The test system of another experiment is cholesterol absorption. As to the kind of experiment: Inhibition of cholesterol absorption in rats fed 1% cholesterol:0.5% cholic acid diet. To be noted: po, 336 h, rat, 2 weeks; for response vs control in vivo at 0.001 %: dose .001% of the diet; for response vs control in vivo at 0.003 %: dose .003% of the diet. Format: in vivo, male Sprague-Dawley rats. Here is the method:
Inhibition of cholesterol absorption was determined by feeding male Sprague-Dawley rats, weighing 150-170 g, a 1% cholesterol:0.5% cholic acid diet for 2 weeks. The diet also contained compounds being tested at a dose of 0.001, 0.003, 0.01, or 0.03% of the diet. Control rats were fed the same diet without any compound. At the end of the test, the rats were sacrificed by decapitation. Blood was collected, centrifuged at […] for 10 minutes at 4° C.; and the serum was then analyzed for cholesterol and triglycerides enzymatically by the method of Trinder, P., Analyst, 77, 321 (1952) on a Centrifichem 400 analyzer. Livers were removed, a 0.4 g sample was taken from the center of the large lobe, and the sample was subjected to saponification using 25% saturated potassium hydroxide in ethanol. The resulting neutral sterols were extracted with petroleum ether and the extract analyzed for cholesterol. The effectiveness of the compound in inhibiting cholesterol absorption was measured by the lowering of either serum cholesterol or liver cholesterol relative the values for control rats.
Compounds which produced statistically significant inhibition of cholesterol absorption are considered to be active. Liver sterol (LS) and serum sterol (SS) values are expressed as a percentage of control values.

[2] abbreviates: rat adrenal ACAT, final concentration 5.2 μg/ml, read-out: % Inhibition.
Setting [3] is: read-out: LS (liver sterol), percentage of control values.
The mark [4] stands for this setting: read-out: SS (serum sterol), percentage of control values.

Like-named read-outs stand apart in the source and are kept apart here.

With `COc1cccc(C(Cc2ccccc2)N(Cc2ccccc2)C(=O)Nc2ccc(C)cc2C)c1` (centres unmarked) [1-Benzyl-1-[1-(3-methoxyphenyl)-2-phenylethyl]-3-(2,4-dimethylphenyl)urea], the inhibition at 5.2 µg/mL in experiment [1] (setting [2]) is 86.4%.
Same read-out and setting: to `CCCCN(Cc1ccccc1)C(=O)Nc1cc(Cl)ccc1O` [1-(n-Butyl)-1-benzyl-3-(2-hydroxy-5-chlorophenyl)urea] belongs 85.6%; to `CCCCc1ccc(CN(CCCCCCO)C(=O)Nc2ccc(C)cc2C)cc1` [1-[(4-Butylphenyl)methyl]-3-(2,4-dimethylphenyl)-1-(6-hydroxyhexyl)urea], 96.8%; to `CCCCCCCN(Cc1ccc(CCCC)cc1)C(=O)Nc1cccc(C(F)(F)F)c1` [1-(n-Heptyl)-1-(4-n-butylbenzyl)-3-(3-trifluoromethylphenyl)urea], 85%.
As to `CCCCN(Cc1ccccc1)C(=O)Nc1cc(Cl)c(N)c(Cl)c1` [1-(n-Butyl)-1-benzyl-3-(4-amino-3,5-dichlorophenyl)urea], in experiment [1] (setting [2]), the inhibition at 5.2 µg/mL worked out at 61.1%.
For the molecule `CCCCN(Cc1ccc(C)cc1)C(=O)Nc1ccc(C)cc1C` [1-(n-Butyl)-1-(4-methylbenzyl)-3-(2,4-dimethylphenyl)urea], the inhibition at 5.2 µg/mL in experiment [1] (setting [2]) was 96.7%.
For the molecule `CC(C)(C)CCN(Cc1ccc(Cl)cc1)C(=O)Nc1cccc(C(F)(F)F)c1` [1-(3,3-Dimethylbutyl)-1-(4-chlorobenzyl)-3-(3-trifluoromethylphenyl)urea], testing at 5.2 µg/mL in experiment [1] gave an inhibition of 90%.
In the case of `Cc1ccc(CCN(Cc2ccc3c(c2)OCO3)C(=O)Nc2ccc(C)cc2C)cc1` [1-(3,4-Methylenedioxybenzyl)-1-[2-(4-methylphenyl)ethyl]-3-(2,4-dimethylphenyl)urea], the inhibition at 5.2 µg/mL in experiment [1] (setting [2]) was found to be 41.2%.
Same read-out and setting: to `Cc1ccc(NC(=O)N(CCc2cccc(C(F)(F)F)c2)Cc2ccccc2Cl)c(C)c1` [1-[2-(3-Trifluoromethylphenyl)ethyl]-1-(2-chlorobenzyl)-3-(2,4-dimethylphenyl)urea] belongs 7.8%.
For the molecule `CCCCCCCN(Cc1ccc(CCCC)cc1)C(=O)Nc1ccc(C(=O)O)cc1` [1-(n-Heptyl)-1-(4-n-butylbenzyl)-3-(4-carboxyphenyl)urea], the inhibition at 5.2 µg/mL in experiment [1] (setting [2]) was 61.8%.
The same measure, in the same setting: to `CCCCN(CCc1ccc(F)cc1)C(=O)Nc1ccc(C)cc1C` [1-(n-Butyl)-1-[2-(4-fluorophenyl)ethyl]-3-(2,4-dimethylphenyl)urea] belongs 96.1%; to `CCCCN(CCc1ccc(Cl)cc1)C(=O)Nc1ccc(C)cc1C` [1-(n-Butyl)-1-[2-(4-chlorophenyl)ethyl]-3-(2,4-dimethylphenyl)urea], 93.3%; to `COc1ccc(CCN(Cc2ccc(C)c(Cl)c2)C(=O)Nc2ccc(C)cc2C)cc1OC` [1-[2-(3,4-Dimethoxyphenyl)ethyl]-1-(3-chloro-4-methylbenzyl)-3-(2,4-dimethylphenyl)urea], 53.3%.
Regarding `CCCCc1ccc(CN(Cc2ccccc2)C(=O)Nc2ccc(Oc3ccccc3)cc2)cc1` [1-Benzyl-1-(4-n-butylbenzyl)-3-(4-phenoxyphenyl)urea], the inhibition at 5.2 µg/mL in experiment [1] (setting [2]) worked out at 93.5%.
Take `CCCCN(Cc1ccc(OC)cc1)C(=O)Nc1ccc(C)cc1C` [1-(n-Butyl)-1-(4-methoxybenzyl)-3-(2,4-dimethylphenyl)urea]: in experiment [1] (setting [2]), the inhibition at 5.2 µg/mL came to 94.2%.
For the molecule `CCCCCCOc1ccc(CN(CCCC)C(=O)Nc2c(C)cc(C)cc2C)cc1` [1-(n-Butyl)-1-(4-hexyloxybenzyl)-3-(2,4,6-trimethylphenyl)urea], the inhibition at 5.2 µg/mL in experiment [1] (setting [2]) came to 97.1%.
On the same count and under the same terms, for `CCCCN(CCc1cccc(Br)c1)C(=O)Nc1ccc(C)cc1C` [1-(n-Butyl)-1-[2-(3-bromophenyl)ethyl]-3-(2,4-dimethylphenyl)urea] the value was 97%; for `CCCCN(Cc1ccccc1)C(=O)Nc1cc(Cl)c(NC(=O)CCl)c(Cl)c1` [1-(n-Butyl)-1-(benzyl)-3-[4-(chloroacetamido)-3,5-dichlorophenyl]urea], 72.9%.
The molecule `Cc1ccc(CN(CCc2cccc(F)c2)C(=O)Nc2ccc(C)cc2C)cc1` [1-[2-(3-Fluorophenyl)ethyl]-1-(4-methylbenzyl)-3-(2,4-dimethylphenyl)urea] came in with an inhibition at 5.2 µg/mL in experiment [1] of 80.5%.
As for `CCCCN(Cc1c(Cl)cccc1Cl)C(=O)Nc1ccc(C)cc1C` [1-( -n-Butyl)-1-(2,6-dichlorobenzyl)-3-(2,4-dimethylphenyl)urea], the inhibition at 5.2 µg/mL in experiment [1] (setting [2]) was 74.5%.
On the same count and under the same terms, for `COc1ccc(CCN(Cc2ccc(F)cc2)C(=O)Nc2ccc(C)cc2C)cc1OC` [1-[2-(3,4-Dimethoxyphenyl)ethyl]-1-(4-fluorobenzyl)-3-(2,4-dimethylphenyl)urea] the value was 57.4%; for `CCCCN(CC(C)(c1ccccc1)c1ccccc1)C(=O)Nc1ccc(C)cc1C` [1-(n-Butyl)-1-(2-methyl-2,2-diphenyl)ethyl-3-(2,4-dimethylphenyl)urea], 97.4%.
Same read-out and setting: to `O=C(Nc1ccc(Cl)cc1C(F)(F)F)N(Cc1ccc(Cl)cc1)Cc1cccc2ccccc12` [1-(4-Chlorobenzyl)-1-(1-naphthylmethyl)-3-(2-trifluoromethyl-4-chlorophenyl)urea] belongs 83%.
As to `CCCCCCCN(Cc1ccc(CC(CC)CCCC)cc1)C(=O)Nc1c(F)cc(F)cc1F` (centres unmarked) [1-(n-Heptyl)-1-[4-(2-ethylhexyl)benzyl]-3-(2,4,6-trifluorophenyl)urea], the response vs control in vivo at 0.001 % with cholesterol absorption (setting [3]) was determined as 87%; with cholesterol absorption (setting [4]), 82%.
Consider `CCCCCCCN(Cc1ccc(CC(C)CCC)cc1)C(=O)Nc1ccc(F)cc1F` (centres unmarked) [1-(n-Heptyl)-1-[4-(2-methylpentyl)benzyl]-3-(2,4-difluorophenyl)urea], for which the response vs control in vivo at 0.003 % in the experiment on cholesterol absorption (setting [3]) turned out to be 72%; in the experiment on cholesterol absorption (setting [4]), 53%.
For `CCCCCCCN(Cc1ccc(CCSC(C)C)cc1)C(=O)Nc1c(C)cc(Cl)cc1C` [1-(n-Heptyl)-1-[4-(2-isopropylthioethyl)benzyl]-3-(4-chloro-2,6-dimethylphenyl)urea], the response vs control in vivo at 0.003 % in the experiment on cholesterol absorption (setting [3]) is 51%; in the experiment with cholesterol absorption (setting [4]), 49%.
`CCCCCCCN(Cc1ccc(OCCC(C)C)cc1)C(=O)Nc1c(C)cc(Cl)cc1C` [1-(n-Heptyl)-1-[4-(isopentyloxy)benzyl]-3-(4-chloro-2,6-dimethylphenyl)urea]: the response vs control in vivo at 0.001 % in the experiment on cholesterol absorption (setting [3]) was 23%; in the experiment with cholesterol absorption (setting [4]), 25%.
As for `CCCCCCCN(Cc1ccc(CC2CCCC2)cc1)C(=O)Nc1c(F)cc(F)cc1F` [1-(n-Heptyl)-1-[4-(cyclopentylmethyl)benzyl]-3-(2,4,6-trifluorophenyl)urea], the response vs control in vivo at 0.003 % in the experiment with cholesterol absorption (setting [3]) stood at 50%; in the experiment on cholesterol absorption (setting [4]) it was 62%.
As to `CCCCCCCN(Cc1ccc(CC(CC)CC)cc1)C(=O)Nc1c(C)cc(Cl)cc1C` [1-(n-Heptyl)-1-[4-(2-ethylbutyl)benzyl]-3-(4-chloro-2,6-dimethylphenyl)urea], the response vs control in vivo at 0.001 % in the experiment on cholesterol absorption (setting [3]) was determined as 94%; with cholesterol absorption (setting [4]) it was 62%.
